Measured values as given in patent US20240409585A1, “MACROCYCLIC IMMUNOMODULATORS” (priority 2021, published 2024).
Numbered stars: 1 amine (or outer) side, 2 acyl side, 3 side chain; on linkers, the order of the positions; unused ones are H or OH. Bridge positions count the residues as written; N and C are the ends. Square brackets hold non-standard residues; d marks the D form. Peptide text beside a SMILES is read from it. * marks the point of attachment. ξ: configuration not given here. Ala(morpholin-4-yl) = N[C@@H](CN1CCOCC1)C(=O)O; Phe(4-COOH) = N[C@@H](Cc1ccc(C(=O)O)cc1)C(=O)O; Asp(3,3-Me2) = CC(C)(C(=O)O)[C@H](N)C(=O)O; Bip = N[C@@H](Cc1ccc(-c2ccccc2)cc1)C(=O)O; Phe(3-Cl) = N[C@@H](Cc1cccc(Cl)c1)C(=O)O; Phe(3-Me) = Cc1cccc(C[C@H](N)C(=O)O)c1; X34 = O=C([C@H](Cc1ccoc1)N[*:1])[*:2]; Bta = N[C@@H](Cc1csc2ccccc12)C(=O)O; Val(3-OH) = CC(C)(O)[C@H](N)C(=O)O; 4Pal = N[C@@H](Cc1ccncc1)C(=O)O; Cha = N[C@@H](CC1CCCCC1)C(=O)O; Cit = NC(=O)NCCC[C@H](N)C(=O)O; Ile(3ξ) = CCC(C)[C@H](N)C(=O)O; Thr(3ξ) = CC(O)[C@H](N)C(=O)O; Carboxymethyl = O=C(O)C*; NMeA = CN[C@@H](C)C(=O)O; Orn = NCCC[C@H](N)C(=O)O; Pra = C#CC[C@H](N)C(=O)O; Dab = NCC[C@H](N)C(=O)O; Nva = CCC[C@H](N)C(=O)O; Dap = NC[C@H](N)C(=O)O; Piv = CC(C)(C)C(=O)*; ξDab = NCCC(N)C(=O)O

target: T1, PE-labeled human PD-L1-Ig binding to Jurkat cell line over-expressing human PD-1 (Jurkat-PD-1) (Homo sapiens, UniProt Q15116); experiment: Jurkat-PD-1 Cell Binding High-Content Screening Assay (CBA): Method 1; conditions: Jurkat-PD-1 cells, PE-labeled PD-L1-Ig; μM; read-out: CBA Method 1 μM
T1 construct: expressed in transfected cells; host or cells: Jurkat
T1 sequence (Q15116 25-288): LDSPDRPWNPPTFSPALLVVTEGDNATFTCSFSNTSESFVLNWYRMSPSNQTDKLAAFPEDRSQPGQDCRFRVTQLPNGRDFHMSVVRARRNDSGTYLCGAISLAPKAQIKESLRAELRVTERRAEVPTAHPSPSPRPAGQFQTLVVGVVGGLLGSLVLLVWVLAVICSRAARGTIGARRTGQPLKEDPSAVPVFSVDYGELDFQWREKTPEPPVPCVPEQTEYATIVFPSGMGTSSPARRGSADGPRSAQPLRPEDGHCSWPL

`CCC(C)[C@@H]1NC(=O)[C@H](Cc2ccc(-c3ccccc3)cc2)NC(=O)[C@H](C(C)C)NC(=O)[C@H](Cc2c[nH]c3ccccc23)NC(=O)[C@H](CC(=O)O)NC(=O)[C@H](Cc2ccc(O)cc2)NC(=O)[C@H](Cc2ccoc2)NC(=O)CSC[C@@H](C(=O)N2CCC[C@H]2C(N)=O)NC(=O)[C@H](C(C)O)NC(=O)[C@H](C(C)(C)O)NC(=O)[C@H](CC2CCCCC2)NC(=O)[C@H](CC(N)=O)NC(=O)[C@@H](CC(C)C)NC(=O)[C@H](C)N(C)C1=O` (stereo partly drawn) [Example 5009] ({CH2CO}-[X34]YDWV[Bip][Ile(3ξ)][NMeA][dL]N[Cha][Val(3-OH)][Thr(3ξ)]CP-NH2; thioether N-14) gave an IC50 of 0.45 µM.

same assay, conditions: Jurkat-hPD-1 cells, PE-labeled PD-L1-Ig 20 nM final; read-out: Jurkat HPDL1 PD1 IC50 (uM) (Method 1)

Going from `Cc1cccc(C[C@@H]2NC(=O)[C@H](CC(=O)O)NC(=O)[C@H](Cc3ccc(O)cc3)NC(=O)[C@H](CC(N)=O)NC(=O)CSC[C@@H](C(=O)N[C@@H](CCN)C(N)=O)NC(=O)[C@H](CCC(=O)O)NC(=O)[C@H](C(C)C)NC(=O)[C@H](CC3CCCCC3)NC(=O)[C@H](CCN)NC(=O)[C@@H](CC(C)C)NC(=O)[C@H](C)N(C)C(=O)[C@H](CCCNC(N)=O)NC(=O)[C@H](Cc3ccc(-c4ccccc4)cc3)NC(=O)[C@H](C(C)(C)O)NC2=O)c1` [Compound 1709] ({CH2CO}-NYD[Phe(3-Me)][Val(3-OH)][Bip][Cit][NMeA][dL][Dab][Cha]VEC[Dab]-NH2; thioether N-14) to `CC(C)C[C@@H]1NC(=O)[C@H](CCN)NC(=O)[C@@H](CC(C)C)NC(=O)[C@H](C)N(C)C(=O)[C@H](CCCNC(N)=O)NC(=O)[C@H](Cc2ccc(-c3ccccc3)cc2)NC(=O)[C@H](C(C)C)NC(=O)[C@H](Cc2cccc(Cl)c2)NC(=O)[C@H](CC(=O)O)NC(=O)[C@H](Cc2ccc(O)cc2)NC(=O)[C@H](CC(N)=O)NC(=O)CSC[C@@H](C(=O)N[C@@H](C)C(N)=O)NC(=O)[C@H]([C@@H](C)O)NC(=O)[C@H](C(C)C)NC1=O` [Compound 1190] ({CH2CO}-NYD[Phe(3-Cl)]V[Bip][Cit][NMeA][dL][Dab]LVTCA-NH2; thioether N-14), the IC50 falls from 0.03 µM to 0.02 µM (1.5-fold).

Compared with `C#CC[C@H](NC(=O)[C@@H](CC(N)=O)NC(=O)[C@@H]1CSCC(=O)N[C@@H](Cc2ccc(OCC(=O)O)cc2)C(=O)N[C@@H](Cc2ccc(OCC(=O)O)cc2)C(=O)N[C@@H](CC(=O)O)C(=O)N[C@@H](Cc2c[nH]c3ccccc23)C(=O)N[C@@H](C(C)C)C(=O)N[C@@H](Cc2ccc(-c3ccccc3)cc2)C(=O)N[C@@H]([C@@H](C)CC)C(=O)N(C)[C@@H](C)C(=O)N[C@H](CC(C)C)C(=O)N[C@@H](CCC)C(=O)N[C@@H](CC2CCCCC2)C(=O)N[C@@H](C(C)(C)O)C(=O)N[C@@H](CO)C(=O)N1)C(N)=O` [Compound 1718] ({CH2CO}-Y(Carboxymethyl)Y(Carboxymethyl)DWV[Bip]I[NMeA][dL][Nva][Cha][Val(3-OH)]SC[dN][Pra]-NH2; thioether N-14), `C#CC[C@H](NC(=O)[C@@H](C)NC(=O)[C@@H]1CSCC(=O)N[C@@H](Cc2c[nH]cn2)C(=O)N[C@@H](Cc2ccc(OCC(=O)O)cc2)C(=O)N[C@@H](CC(=O)O)C(=O)N[C@@H](Cc2c[nH]c3ccccc23)C(=O)N[C@@H](C(C)C)C(=O)N[C@@H](Cc2ccc(-c3ccccc3)cc2)C(=O)N[C@@H](C(C)C)C(=O)N(C)[C@@H](C)C(=O)N[C@H](CC(C)C)C(=O)N[C@@H](CCN)C(=O)N[C@@H](CC2CCCCC2)C(=O)N[C@@H](C(C)(C)O)C(=O)N[C@@H](CO)C(=O)N1)C(N)=O` [Compound 1942] ({CH2CO}-HY(Carboxymethyl)DWV[Bip]V[NMeA][dL][Dab][Cha][Val(3-OH)]SC[dA][Pra]-NH2; thioether N-14) is 3-fold lower in IC50: 0.03 µM for the first, 0.01 µM for the second.

Going from `Cc1cccc(C[C@@H]2NC(=O)[C@H](CC(=O)O)NC(=O)[C@H](Cc3ccc(OCC(=O)O)cc3)NC(=O)[C@H](CCN)NC(=O)CSC[C@@H](C(=O)N[C@@H](CCN)C(N)=O)NC(=O)[C@H](CO)NC(=O)[C@H](C(C)(C)C(=O)O)NC(=O)[C@H](CC3CCCCC3)NC(=O)[C@H](CCN)NC(=O)[C@@H](CC(C)C)NC(=O)[C@H](C)N(C)C(=O)[C@H](Cc3ccc(OCC(=O)O)cc3)NC(=O)[C@H](Cc3ccc(-c4ccccc4)cc3)NC(=O)[C@H](Cc3ccc(OCC(=O)O)cc3)NC2=O)c1` [Compound 1848] ({CH2CO}-[Dab]Y(Carboxymethyl)D[Phe(3-Me)]Y(Carboxymethyl)[Bip]Y(Carboxymethyl)[NMeA][dL][Dab][Cha][Asp(3,3-Me2)]SC[Dab]-NH2; thioether N-14) to `Cc1cccc(C[C@@H]2NC(=O)[C@H](CC(=O)O)NC(=O)[C@H](Cc3ccc(OCC(=O)O)cc3)NC(=O)[C@H](Cc3ccncc3)NC(=O)CSC[C@@H](C(=O)N[C@@H](CCN)C(N)=O)NC(=O)[C@H](CCC(=O)O)NC(=O)[C@H](C(C)C)NC(=O)[C@H](CC3CCCCC3)NC(=O)[C@H](CCN)NC(=O)[C@@H](CC(C)C)NC(=O)[C@H](C)N(C)C(=O)[C@H](Cc3ccc(OCC(=O)O)cc3)NC(=O)[C@H](Cc3ccc(-c4ccccc4)cc3)NC(=O)[C@H](Cc3ccc(C(=O)O)cc3)NC2=O)c1` [Compound 2193] ({CH2CO}-[4Pal]Y(Carboxymethyl)D[Phe(3-Me)][Phe(4-COOH)][Bip]Y(Carboxymethyl)[NMeA][dL][Dab][Cha]VEC[Dab]-NH2; thioether N-14), the IC50 falls from 0.06 µM to 0.01 µM (6-fold).

First: Cc1cccc(C[C@@H]2NC(=O)[C@H](CC(=O)O)NC(=O)[C@H](Cc3ccc(OCC(=O)O)cc3)NC(=O)[C@H](CN3CCOCC3)NC(=O)CSC[C@@H](C(=O)NC(CCN)C(N)=O)NC(=O)[C@H](CCCN)NC(=O)[C@H](C(C)C)NC(=O)[C@H](Cc3cccc(C)c3)NC(=O)[C@H](CCN)NC(=O)[C@@H](CC(C)C)NC(=O)[C@H](C)N(C)C(=O)[C@H](CCC(N)=O)NC(=O)[C@H](Cc3ccc(-c4ccccc4)cc3)NC(=O)[C@H](Cc3ccc(C(=O)O)cc3)NC2=O)c1 (stereo partly drawn) [Example 2298] ({CH2CO}-[Ala(morpholin-4-yl)]Y(Carboxymethyl)D[Phe(3-Me)][Phe(4-COOH)][Bip]Q[NMeA][dL][Dab][Phe(3-Me)]V[Orn]C[ξDab]-NH2; thioether N-14)
Second: Cc1cccc(C[C@@H]2NC(=O)[C@H](CC(=O)O)NC(=O)[C@H](Cc3ccc(OCC(=O)O)cc3)NC(=O)[C@H](Cc3ccncc3)NC(=O)CSC[C@@H](C(=O)N[C@@H](CCNC(=O)C(C)(C)C)C(N)=O)NC(=O)[C@H](Cc3cnc[nH]3)NC(=O)[C@H](C(C)(C)O)NC(=O)[C@H](CC3CCCCC3)NC(=O)[C@H](CCN)NC(=O)[C@@H](CC(C)C)NC(=O)[C@H](C)N(C)C(=O)[C@H](Cc3ccc(OCC(=O)O)cc3)NC(=O)[C@H](Cc3ccc(-c4ccccc4)cc3)NC(=O)[C@H](Cc3ccc(C(=O)O)cc3)NC2=O)c1 [Compound 2165] ({CH2CO}-[4Pal]Y(Carboxymethyl)D[Phe(3-Me)][Phe(4-COOH)][Bip]Y(Carboxymethyl)[NMeA][dL][Dab][Cha][Val(3-OH)]HC[Dab](Piv)-NH2; thioether N-14)
The IC50 of the first is 4-fold lower: 0.01 µM for the first, 0.04 µM for the second. The first is the more potent here.

Compared with `CC(C)C[C@@H]1NC(=O)[C@H](CC(N)=O)NC(=O)[C@@H](CC(C)C)NC(=O)[C@H](C)N(C)C(=O)[C@H](CCCNC(=N)N)NC(=O)[C@H](Cc2ccc(-c3ccccc3)cc2)NC(=O)[C@H](C(C)C)NC(=O)[C@H](Cc2c[nH]c3ccccc23)NC(=O)[C@H](CC(=O)O)NC(=O)[C@H](Cc2ccc(O)cc2)NC(=O)[C@H](Cc2ccccc2)NC(=O)CSC[C@@H](C(=O)N[C@@H](C)C(N)=O)NC(=O)[C@H](CO)NC(=O)[C@H](C(C)C)NC1=O` [Compound 1742] ({CH2CO}-FYDWV[Bip]R[NMeA][dL]NLVSCA-NH2; thioether N-14), `CC(C)C[C@@H]1NC(=O)[C@H](CCN)NC(=O)[C@H](Cc2csc3ccccc23)NC(=O)[C@H](C)N(C)C(=O)[C@H](CCC(=O)O)NC(=O)[C@H](Cc2ccc(-c3ccccc3)cc2)NC(=O)[C@H](C(C)C)NC(=O)[C@H](Cc2c[nH]c3ccccc23)NC(=O)[C@H](CC(=O)O)NC(=O)[C@H](Cc2ccc(O)cc2)NC(=O)[C@H](Cc2ccccc2)NC(=O)CSC[C@@H](C(=O)N[C@@H](C)C(N)=O)NC(=O)[C@H]([C@@H](C)O)NC(=O)[C@H](C(C)C)NC1=O` [Compound 1143] ({CH2CO}-FYDWV[Bip]E[NMeA][Bta][Dab]LVTCA-NH2; thioether N-14) is 12-fold higher in IC50: 0.02 µM for the first, 0.24 µM for the second.

`Cc1cccc(C[C@@H]2NC(=O)[C@H](CC(=O)O)NC(=O)[C@H](Cc3ccc(OCC(=O)O)cc3)NC(=O)[C@H](Cc3ccncc3)NC(=O)CSC[C@@H](C(=O)N[C@@H](C)C(N)=O)NC(=O)[C@H]([C@@H](C)O)NC(=O)[C@H](C(C)C)NC(=O)[C@H](CC(C)C)NC(=O)[C@H](CCN)NC(=O)[C@@H](CC(C)C)NC(=O)[C@H](C)N(C)C(=O)[C@H](C(C)C)NC(=O)[C@H](Cc3ccc(-c4ccccc4)cc3)NC(=O)[C@H](C(C)C)NC2=O)c1` [Compound 1419] ({CH2CO}-[4Pal]Y(Carboxymethyl)D[Phe(3-Me)]V[Bip]V[NMeA][dL][Dab]LVTCA-NH2; thioether N-14) and `Cc1cccc(C[C@@H]2NC(=O)[C@H](CC(=O)O)NC(=O)[C@H](Cc3ccc(C(=O)O)cc3)NC(=O)[C@H](Cc3ccncc3)NC(=O)CSC[C@@H](C(=O)N[C@@H](C)C(N)=O)NC(=O)[C@H]([C@@H](C)O)NC(=O)[C@H](C(C)C)NC(=O)[C@H](CC(C)C)NC(=O)[C@H](CCN)NC(=O)[C@@H](CC(C)C)NC(=O)[C@H](C)N(C)C(=O)[C@H](CCCNC(N)=O)NC(=O)[C@H](Cc3ccc(-c4ccccc4)cc3)NC(=O)[C@H](C(C)C)NC2=O)c1` [Compound 1431] ({CH2CO}-[4Pal][Phe(4-COOH)]D[Phe(3-Me)]V[Bip][Cit][NMeA][dL][Dab]LVTCA-NH2; thioether N-14) are the same in IC50: 0.01 µM for the first, 0.01 µM for the second.

With `Cc1cccc(C[C@@H]2NC(=O)[C@H](CC(=O)O)NC(=O)[C@H](Cc3ccc(OCC(=O)O)cc3)NC(=O)[C@H](CN)NC(=O)CSC[C@@H](C(=O)N[C@@H](C)C(N)=O)NC(=O)[C@H](CO)NC(=O)[C@H](C(C)C)NC(=O)[C@H](CC(C)C)NC(=O)[C@H](CC(N)=O)NC(=O)[C@@H](C)NC(=O)[C@H](C)N(C)C(=O)[C@H](C(C)C)NC(=O)[C@H](Cc3ccc(-c4ccccc4)cc3)NC(=O)[C@H](CC(C)C)NC2=O)c1` [Compound 1582] ({CH2CO}-[Dap]Y(Carboxymethyl)D[Phe(3-Me)]L[Bip]V[NMeA][dA]NLVSCA-NH2; thioether N-14) the IC50 was 0.02 µM.
